pIC50: −log10 of the molar value.

Data on three molecules can be found in publication PMC12365235, “Molecular mechanisms of thiazide-like diuretics-mediated inhibition of the human Na-Cl cotransporter” (Nature Communications, 2025).

The test addresses T1, hNCC(G230A) (Homo sapiens, UniProt P55017, G230A).
T1 construct: expressed in transfected cells
T1 sequence (P55017 1-1021 G230A): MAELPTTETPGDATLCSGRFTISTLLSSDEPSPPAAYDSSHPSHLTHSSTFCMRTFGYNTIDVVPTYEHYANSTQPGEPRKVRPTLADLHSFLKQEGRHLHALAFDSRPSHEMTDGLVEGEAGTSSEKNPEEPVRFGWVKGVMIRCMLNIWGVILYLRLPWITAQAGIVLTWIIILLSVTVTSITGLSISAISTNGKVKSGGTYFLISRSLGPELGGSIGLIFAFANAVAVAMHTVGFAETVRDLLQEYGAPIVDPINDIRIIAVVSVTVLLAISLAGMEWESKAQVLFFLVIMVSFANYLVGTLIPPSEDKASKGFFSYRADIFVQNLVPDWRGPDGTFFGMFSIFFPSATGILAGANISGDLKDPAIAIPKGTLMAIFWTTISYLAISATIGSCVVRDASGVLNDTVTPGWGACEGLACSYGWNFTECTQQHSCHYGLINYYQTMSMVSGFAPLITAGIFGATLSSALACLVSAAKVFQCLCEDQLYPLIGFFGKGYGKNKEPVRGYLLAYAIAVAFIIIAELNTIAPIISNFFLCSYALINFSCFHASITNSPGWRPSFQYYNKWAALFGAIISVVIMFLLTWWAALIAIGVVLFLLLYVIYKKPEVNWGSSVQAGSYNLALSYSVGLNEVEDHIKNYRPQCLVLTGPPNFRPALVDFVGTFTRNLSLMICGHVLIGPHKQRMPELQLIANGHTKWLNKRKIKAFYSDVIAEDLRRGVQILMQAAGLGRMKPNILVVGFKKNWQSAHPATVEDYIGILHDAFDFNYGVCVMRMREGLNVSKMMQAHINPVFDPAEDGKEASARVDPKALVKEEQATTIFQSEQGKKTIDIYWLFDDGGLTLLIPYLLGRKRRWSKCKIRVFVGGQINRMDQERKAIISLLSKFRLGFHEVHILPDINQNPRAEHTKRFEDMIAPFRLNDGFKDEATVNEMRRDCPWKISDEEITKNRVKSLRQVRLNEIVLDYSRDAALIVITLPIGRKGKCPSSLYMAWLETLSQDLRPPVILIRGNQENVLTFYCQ
Description: 125I- uptake assay, hNCC(G230A) variant. It is filed as cell-based. The conditions noted are these: for fold less sensitive than hNCC(WT) / pIC50: G230A substitution; for pIC50: iodide uptake. As for the experimental part:
HEK293S cell lines, cultured in 293 Freestyle medium (Life Technologies; plus 10% fetal bovine serum), stably expressing hNCC and its variants were generated following published protocols. Cells were transfected using Lipofectamine 3000 (Invitrogen) with a pSBbi-RP-based plasmid containing hNCC or its variants and the SB100X vector. Puromycin (2 μg/mL; Gemini Bio-Products) was used for selection of stable cell lines.
To prepare for the uptake experiment, cells were plated at 0.5 × 10^6 cells/well in 24-well plates one day in advance. To activate NCC, cells were treated with a chloride-free hypotonic solution composed of 67.5 mM sodium-, 2.5 mM potassium-, 0.25 mM magnesium-, and 0.25 mM calcium-gluconate, as well as 7.5 mM HEPES pH 7.4 (buffered using Tris) at 37 °C for 10 min[72]. After the activation step, the experiments were carried out at room temperature. Ten minutes before the start of ^125I^− uptake, 70 μM Bumetanide (Thermo Scientific Chemicals) and 100 μM 4,4′-diisothiocyanatostilbene-2,2′-disulfonic acid (DIDS; Sigma) were added to suppress background iodide uptake activity. Indicated thiazide diuretics were also added to the indicated concentrations 10 min before the start of ^125I^− uptake. The original buffer was switched to an uptake buffer composed of 135 mM Na-gluconate, 5 mM K-gluconate, 1 mM Mg-gluconate, 1 mM Ca-gluconate, 70 μM bumetanide, 100 μM DIDS, 1 mM NaI, 0.25 μCi/ml Na^125I (American Radiolabeled Chemicals, Inc.), and 15 mM HEPES pH 7.4 (buffered using Tris), in the presence or absence of thiazide diuretics to initiate ^125I^− uptake. The ^125I^− uptake process lasted 1 h and was stopped by two rapid washes using ice-cold 110 mM MgCl2. Cells lysed using 1% sodium dodecyl sulfate (SDS) were analyzed by scintillation counting.
To calculate the fold change of the half-maximal inhibitory concentration (IC50) between hNCC(WT) and different hNCC variants, individual dose-response curves were normalized first using the smallest mean and the value of the lowest concentration as 0% and 100%, respectively. The normalized data were then fitted using the “EC50 shift” nonlinear regression in GraphPad Prism 10 with the shared EC50Control assigned to be the IC50 of hNCC(WT). The following constraints were used in the EC50 shift analysis. The EC50Control was set to be shared across all curves under analysis and constrained to be greater than 0. The EC50Ratio was constrained to be greater than 0. The bottom, top, and HillSlope were constrained to be 0, 100, and −1, respectively. For Fig. 1f, g and Supplementary Fig. 2d, GraphPad Prism 10 was used to perform curve fitting and IC50 calculation for normalized data using y = 100/(1 + (x/IC50)).

The pIC50 is the negative decadic logarithm of the IC50, by convention in mol/L. Low readings indicate a high IC50, high ones a low IC50. As for `NS(=O)(=O)c1cc(C2(O)NC(=O)c3ccccc32)ccc1Cl` (stereo not shown) [chlorthalidone], the “fold less sensitive than hNCC(WT)” value was “approximately 40 fold” and the negative logarithm of the IC50 (pIC50) was 6.03.

Consider `CC1Cc2ccccc2N1NC(=O)c1ccc(Cl)c(S(N)(=O)=O)c1` (stereo not shown) [indapamide], for which the “fold less sensitive than hNCC(WT)” value is ~ 2 fold and the negative logarithm of the IC50 (pIC50) was 7.54.

As to `CN1C(CSCC(F)(F)F)Nc2cc(Cl)c(S(N)(=O)=O)cc2S1(=O)=O` (stereo not shown) [polythiazide], the “fold less sensitive than hNCC(WT)” value was ~ 2 fold and the negative-log IC50 (pIC50) was 8.85. Besides, the “inhibition of transport activity” value (100 μM polythiazide, G230A) is reported as “fully inhibited”.
